Measured values published in US20250145606A1 (Arcus Biosciences, Inc., priority 2023, published 2025).
Marks after values point to notes of the source that are not given here.

Columns and labels:
[1] = system: Sprague Dawley rat hepatocytes; assay: Bioactivation assessment in rat hepatocytes; type: in vitro ADME; details: 5 μM, 4 hours
Protocol: Bioactivation Assessment Procedure
Pooled male Sprague Dawley rat (BioIVT), male beagle dog (BioIVT), male cynomolgus monkey (BioIVT), and a 50-donor pool of cryopreserved human hepatocytes (BioIVT) was thawed in pre-warmed 37° C. InVitroGro™ HT media (BioIVT), centrifuged, and resuspended in the InVitroGro™ HI media (BioIVT). The number of viable cells was determined by the Trypan blue exclusion method. The cells were diluted to a concentration of two million viable cells per milliliter (viability >80%) and seeded into round-bottom 96-well plates. The test articles were dissolved in DMSO and further diluted in 50% CH3CN and InVitroGro™ HI media with final concentrations of 0.05% DMSO and 0.5% CH3CN in the incubation mixture. Incubation was performed at a final concentration of one million cells per milliliter and 5 μM test compounds with continuous shaking at 1100 rpm in a 37° C., 5/95% CO2/air incubator with 100% relative humidity. After 4 hours, the samples were quenched by addition of 3 volumes of CH3CN, vortexed for 15 minutes, and centrifuged at 4200 rpm for 15 minutes at 10° C. (Sorvall Legend XTR centrifuge, Thermo Scientific, Langenselbold, Germany). 80 μL of the resulting supernatant was transferred into a new plate and mixed with 160 μL water followed by liquid chromatography-high resolution mass spectrometry (LC-HRMS) analysis.
Structural assignments of metabolites were determined through mass spectral analysis. The level of bioactivation was estimated based on the relative peak area of bioactivation products to all identified metabolites. The following equation was used: […]
Bioactivation products included glutathione conjugates, imine methides, quinones, diols, and other relevant metabolites.

[2] = molecular target: FLT3 (Homo sapiens (Human), UniProt P36888); assay: Inhibition of FLT3 kinase activity (HTRF KinEASE-TK); type: biochemical; details: biochemical
Sequence of FLT3 (P36888 27-993): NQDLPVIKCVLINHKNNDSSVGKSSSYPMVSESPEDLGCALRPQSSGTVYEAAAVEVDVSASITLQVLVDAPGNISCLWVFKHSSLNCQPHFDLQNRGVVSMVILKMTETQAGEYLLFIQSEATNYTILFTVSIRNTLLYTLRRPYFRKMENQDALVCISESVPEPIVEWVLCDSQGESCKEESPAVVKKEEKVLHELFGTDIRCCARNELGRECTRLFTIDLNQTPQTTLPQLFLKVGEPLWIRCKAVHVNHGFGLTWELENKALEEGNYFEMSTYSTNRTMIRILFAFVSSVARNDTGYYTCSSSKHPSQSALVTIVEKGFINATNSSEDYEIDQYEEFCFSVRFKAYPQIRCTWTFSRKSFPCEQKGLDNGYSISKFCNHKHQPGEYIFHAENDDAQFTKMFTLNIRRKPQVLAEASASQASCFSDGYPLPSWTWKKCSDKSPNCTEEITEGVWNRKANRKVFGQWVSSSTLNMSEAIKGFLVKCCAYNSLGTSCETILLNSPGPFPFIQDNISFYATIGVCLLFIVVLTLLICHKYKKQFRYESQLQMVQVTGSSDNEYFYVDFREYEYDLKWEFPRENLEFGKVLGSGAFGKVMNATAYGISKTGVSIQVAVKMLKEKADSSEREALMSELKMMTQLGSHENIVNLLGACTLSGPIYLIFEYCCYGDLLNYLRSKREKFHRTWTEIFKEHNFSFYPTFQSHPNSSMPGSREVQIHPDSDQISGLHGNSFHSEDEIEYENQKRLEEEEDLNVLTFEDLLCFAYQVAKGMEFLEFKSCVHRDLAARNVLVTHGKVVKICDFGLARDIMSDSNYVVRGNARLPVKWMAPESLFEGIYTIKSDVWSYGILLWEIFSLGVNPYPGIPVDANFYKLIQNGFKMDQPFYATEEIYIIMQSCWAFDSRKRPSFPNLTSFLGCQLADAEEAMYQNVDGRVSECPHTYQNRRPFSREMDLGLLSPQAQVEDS
Procedure, shortened: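 FLT3 tyrosine kinase activity was measured with the HTRF KinEASE-TK kit by following phosphorylation of a biotinylated TK peptide. After the 45 min reaction, 10 μL of detection mix was added: 0.2 μM (2×) Streptavidin-XL665 and 2 μM (2×) TK-Antibody-Cryptate in detection buffer. After 60 min, TR-FRET was read on an Envision as the 665 nm/620 nm emission ratio with 320 nm excitation.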

[3] = molecular target: PDGFRβ (Homo sapiens (Human), UniProt P09619); assay: Inhibition of PDGFRβ kinase activity (HTRF KinEASE-TK); details: biochemical
Sequence of PDGFRβ (P09619 33-1106): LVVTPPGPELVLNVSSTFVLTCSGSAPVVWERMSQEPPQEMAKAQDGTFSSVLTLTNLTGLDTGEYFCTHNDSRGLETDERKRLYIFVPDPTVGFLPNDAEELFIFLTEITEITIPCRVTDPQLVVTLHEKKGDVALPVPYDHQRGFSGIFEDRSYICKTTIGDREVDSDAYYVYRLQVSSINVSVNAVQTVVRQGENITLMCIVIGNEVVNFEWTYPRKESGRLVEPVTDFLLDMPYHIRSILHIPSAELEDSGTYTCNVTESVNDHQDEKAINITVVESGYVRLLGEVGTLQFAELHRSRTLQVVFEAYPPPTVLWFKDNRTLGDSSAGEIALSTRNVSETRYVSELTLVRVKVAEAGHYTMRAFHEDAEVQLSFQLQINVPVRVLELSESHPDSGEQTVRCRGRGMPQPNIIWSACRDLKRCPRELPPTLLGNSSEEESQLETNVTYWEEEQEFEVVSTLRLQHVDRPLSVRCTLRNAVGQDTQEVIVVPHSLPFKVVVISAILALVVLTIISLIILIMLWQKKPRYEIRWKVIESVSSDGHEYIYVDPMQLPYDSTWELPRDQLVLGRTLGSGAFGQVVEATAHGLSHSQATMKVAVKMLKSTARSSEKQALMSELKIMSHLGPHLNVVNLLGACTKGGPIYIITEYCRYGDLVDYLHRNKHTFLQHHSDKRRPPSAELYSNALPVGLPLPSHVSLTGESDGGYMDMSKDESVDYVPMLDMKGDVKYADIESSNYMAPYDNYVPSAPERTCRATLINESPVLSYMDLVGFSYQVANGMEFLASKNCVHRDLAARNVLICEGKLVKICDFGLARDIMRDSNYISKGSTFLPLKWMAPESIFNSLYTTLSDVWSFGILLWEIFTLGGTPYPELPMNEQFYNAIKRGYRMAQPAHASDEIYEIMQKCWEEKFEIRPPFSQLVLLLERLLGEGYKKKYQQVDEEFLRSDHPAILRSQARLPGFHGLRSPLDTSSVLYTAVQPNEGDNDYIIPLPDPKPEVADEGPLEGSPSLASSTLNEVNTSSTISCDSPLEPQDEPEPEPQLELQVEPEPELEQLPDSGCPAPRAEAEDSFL
Procedure, shortened: (§1)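 Human kinases were preincubated 1 h at rt with a 22-point 1:2 compound titration, then run 120 min at rt with biotinylated TK peptide and ATP (2× mix: c-Kit 16 μM, PDGFRα 1 μM, PDGFRβ 40 μM, CSF1R 20 μM). Phosphopeptide was read by HTRF TR-FRET (665/620 nm), and IC50s came from 4-parameter fits.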

[4] = molecular target: PDGFRα (Homo sapiens (Human), UniProt P16234); assay: Inhibition of PDGFRα kinase activity (HTRF KinEASE-TK); details: biochemical
Sequence of PDGFRα (P16234 24-1089): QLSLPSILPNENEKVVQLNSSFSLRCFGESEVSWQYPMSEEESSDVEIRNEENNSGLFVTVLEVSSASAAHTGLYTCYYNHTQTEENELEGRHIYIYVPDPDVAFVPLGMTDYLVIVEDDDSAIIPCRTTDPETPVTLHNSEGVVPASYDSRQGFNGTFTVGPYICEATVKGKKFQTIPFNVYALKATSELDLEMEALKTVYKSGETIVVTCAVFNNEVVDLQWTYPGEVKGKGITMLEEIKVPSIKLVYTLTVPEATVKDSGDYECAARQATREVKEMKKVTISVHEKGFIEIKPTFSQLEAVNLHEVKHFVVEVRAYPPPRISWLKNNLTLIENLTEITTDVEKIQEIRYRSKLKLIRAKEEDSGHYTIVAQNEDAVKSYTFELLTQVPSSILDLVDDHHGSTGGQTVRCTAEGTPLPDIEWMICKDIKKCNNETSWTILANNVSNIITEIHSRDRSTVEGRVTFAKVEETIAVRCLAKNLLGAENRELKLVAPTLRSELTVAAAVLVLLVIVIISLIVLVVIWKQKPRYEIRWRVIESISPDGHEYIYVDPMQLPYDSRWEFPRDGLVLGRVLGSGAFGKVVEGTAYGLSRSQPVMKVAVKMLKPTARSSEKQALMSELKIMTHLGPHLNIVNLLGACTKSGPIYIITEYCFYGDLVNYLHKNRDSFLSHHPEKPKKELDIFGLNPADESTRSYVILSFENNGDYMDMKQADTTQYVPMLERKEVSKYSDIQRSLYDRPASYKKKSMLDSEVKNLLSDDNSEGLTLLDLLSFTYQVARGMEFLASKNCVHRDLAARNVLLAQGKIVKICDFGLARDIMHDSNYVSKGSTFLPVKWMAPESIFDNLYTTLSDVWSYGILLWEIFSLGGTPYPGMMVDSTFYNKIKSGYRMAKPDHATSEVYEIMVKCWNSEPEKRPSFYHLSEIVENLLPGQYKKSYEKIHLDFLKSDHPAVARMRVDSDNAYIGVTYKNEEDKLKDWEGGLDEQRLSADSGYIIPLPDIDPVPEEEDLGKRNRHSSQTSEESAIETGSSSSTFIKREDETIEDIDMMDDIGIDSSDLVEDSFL
Procedure, shortened: as §1

[5] = molecular target: CSF1R (Homo sapiens (Human), UniProt P07333); assay: Inhibition of CSF1R kinase activity (HTRF KinEASE-TK); details: biochemical
Sequence of CSF1R (P07333 20-972): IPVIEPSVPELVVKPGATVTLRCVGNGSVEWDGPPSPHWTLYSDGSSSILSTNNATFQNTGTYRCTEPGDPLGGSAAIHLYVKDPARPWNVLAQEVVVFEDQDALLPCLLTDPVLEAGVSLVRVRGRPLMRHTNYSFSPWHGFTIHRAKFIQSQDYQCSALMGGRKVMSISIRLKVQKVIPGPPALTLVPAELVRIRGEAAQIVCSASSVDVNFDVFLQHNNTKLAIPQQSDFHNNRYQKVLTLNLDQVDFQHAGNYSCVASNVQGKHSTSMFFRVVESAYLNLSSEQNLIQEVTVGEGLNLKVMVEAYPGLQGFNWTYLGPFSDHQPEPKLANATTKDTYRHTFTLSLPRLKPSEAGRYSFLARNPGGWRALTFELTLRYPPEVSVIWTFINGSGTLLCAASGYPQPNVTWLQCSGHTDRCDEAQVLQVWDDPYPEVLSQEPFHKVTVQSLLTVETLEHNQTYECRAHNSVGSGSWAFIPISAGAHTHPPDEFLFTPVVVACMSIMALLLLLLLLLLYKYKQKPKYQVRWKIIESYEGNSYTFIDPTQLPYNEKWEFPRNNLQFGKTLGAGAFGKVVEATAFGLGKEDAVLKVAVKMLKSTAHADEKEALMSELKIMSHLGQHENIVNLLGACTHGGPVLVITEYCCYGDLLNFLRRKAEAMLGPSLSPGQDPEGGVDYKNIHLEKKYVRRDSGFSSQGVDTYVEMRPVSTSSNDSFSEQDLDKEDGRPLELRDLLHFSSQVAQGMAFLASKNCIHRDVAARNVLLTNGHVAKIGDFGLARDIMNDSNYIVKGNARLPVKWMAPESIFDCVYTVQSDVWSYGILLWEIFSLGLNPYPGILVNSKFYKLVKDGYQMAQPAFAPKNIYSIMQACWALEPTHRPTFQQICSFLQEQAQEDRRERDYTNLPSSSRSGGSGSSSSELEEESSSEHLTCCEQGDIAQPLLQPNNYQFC
Procedure, shortened: as §1

Cc1ncc(C(=O)Nc2cc(C(=O)Nc3ccc(CC4CC4)cn3)c(F)cc2C)s1 [Example 5, N-[5-[[5-(Cyclopropylmethyl)pyridin-2-yl]carbamoyl]-4-fluoro-2-methylphenyl]-2-methyl-1,3-thiazole-5-carboxamide]
Percent of total metabolism via bioactivation, Rat hepatocytes [1]: <1%
IC50 [2]: > 1000 nM
IC50 [3]: > 1000 nM
IC50 [4]: > 1000 nM
IC50 [5]: > 1000 nM

Cc1ncc(C(=O)Nc2cc(C(=O)Nc3ccc(OC4CC4)cn3)c(F)cc2C)s1 [Example 2, N-[5-[(5-Cyclopropyloxypyridin-2-yl)carbamoyl]-4-fluoro-2-methylphenyl]-2-methyl-1,3-thiazole-5-carboxamide]
Percent of total metabolism via bioactivation, Rat hepatocytes [1]: 1-2%ª
IC50 [2]: > 1000 nM
IC50 [3]: > 1000 nM
IC50 [4]: > 1000 nM
IC50 [5]: > 1000 nM

Cc1ncc(C(=O)Nc2cc(C(=O)Nc3ccc(OC(F)F)cn3)c(F)cc2C)s1 [Example 38, N-[5-[[5-(difluoromethoxy)pyridin-2-yl]carbamoyl]-4-fluoro-2-methylphenyl]-2-methyl-1,3-thiazole-5-carboxamide]
Percent of total metabolism via bioactivation, Rat hepatocytes [1]: 2%
IC50 ([2]; HTRF KinEASE-TK): > 1000 nM
IC50 ([3]; HTRF KinEASE-TK): > 1000 nM
IC50 ([4]; HTRF KinEASE-TK): > 1000 nM
IC50 ([5]; HTRF KinEASE-TK): > 1000 nM

Cc1ncc(C(=O)Nc2cc(C(=O)Nc3ccc(C4CC4)cn3)c(F)cc2C)s1 [Example 3, N-[5-[(5-Cyclopropylpyridin-2-yl)carbamoyl]-4-fluoro-2-methylphenyl]-2-methyl-1,3-thiazole-5-carboxamide]
Percent of total metabolism via bioactivation, Rat hepatocytes [1]: <0.1%
IC50 [2]: > 1000 nM
IC50 [3]: > 1000 nM
IC50 [4]: > 1000 nM
IC50 [5]: > 1000 nM

Cc1ncc(C(=O)Nc2cc(C(=O)Nc3ccc(CC(F)(F)F)cn3)c(F)cc2Cl)s1 [Example 46, N-[2-chloro-4-fluoro-5-[[5-(2,2,2-trifluoroethyl)pyridin-2-yl]carbamoyl]phenyl]-2-methyl-1,3-thiazole-5-carboxamide]
Percent of total metabolism via bioactivation, Rat hepatocytes [1]: 80%
IC50 ([2]; HTRF KinEASE-TK): > 1000 nM
IC50 ([3]; HTRF KinEASE-TK): > 1000 nM
IC50 ([4]; HTRF KinEASE-TK): > 1000 nM
IC50 ([5]; HTRF KinEASE-TK): > 1000 nM

Cc1ncc(C(=O)Nc2cc(C(=O)Nc3ccc(CC(F)(F)F)cn3)c(F)cc2C)s1 [Example 1, N-[4-Fluoro-2-methyl-5-[[5-(2,2,2-trifluoroethyl)pyridin-2-yl]carbamoyl]phenyl]-2-methyl-1,3-thiazole-5-carboxamide]
Percent of total metabolism via bioactivation, Rat hepatocytes [1]: 3-7%^b
IC50 [2]: > 1000 nM
IC50 [3]: > 1000 nM
IC50 [4]: > 1000 nM
IC50 [5]: > 1000 nM

Cc1ncc(C(=O)Nc2cc(C(=O)Nc3cnc(OCC(C)(F)F)cn3)c(F)cc2C)s1 [Example 4, N-[5-[[5-(2,2-Difluoropropoxy)pyrazin-2-yl]carbamoyl]-4-fluoro-2-methylphenyl]-2-methyl-1,3-thiazole-5-carboxamide]
Percent of total metabolism via bioactivation, Rat hepatocytes [1]: <1%^a
IC50 [2]: > 1000 nM
IC50 [3]: > 1000 nM
IC50 [4]: > 1000 nM
IC50 [5]: > 1000 nM
